Measured values from ChEMBL document CHEMBL3885881, “DrugMatrix”.

Organism: Rattus norvegicus
Test: DrugMatrix - Regimen: Daily Repeat
Assay type: toxicity, organism-based, Sprague-Dawley
Design: regimen Daily Repeat, gender Male, age 6-8 weeks
Conditions: in vivo, po, route oral GAVAGE, […]; for ABSOLUTE BASOPHIL / ABSOLUTE EOSINOPHIL / ABSOLUTE LYMPHOCYTE / ABSOLUTE MONOCYTE / ABSOLUTE SEGMENTED NEUTROPHIL / BASOPHIL / EOSINOPHIL / ERYTHROCYTE COUNT / HEMATOCRIT / HEMOGLOBIN / LEUKOCYTE COUNT / LYMPHOCYTE / MEAN CORPUSCULAR HEMOGLOBIN / MEAN CORPUSCULAR HEMOGLOBIN CONCENTRATION / MEAN CORPUSCULAR VOLUME / MONOCYTE / NEUTROPHIL / NUCLEATED RED BLOOD CELLS / PLATELET COUNT: tissue Blood; for ALANINE AMINOTRANSFERASE / ALBUMIN / ALKALINE PHOSPHATASE / ASPARTATE AMINOTRANSFERASE / BLOOD UREA NITROGEN / CARBON DIOXIDE / CHLORIDE / CHOLESTEROL / CREATINE PHOSPHOKINASE / CREATININE / GLUCOSE / LACTATE DEHYDROGENASE / LIPASE / PHOSPHORUS / POTASSIUM / SODIUM / TOTAL BILIRUBIN / TOTAL PROTEIN / URIC ACID: tissue Plasma
[1] = 81 mg/kg, 72 h, dose level High, time 3 day
[2] = 81 mg/kg, 120 h, dose level High, time 5 day
[3] = 72 h, dose 8.1 mg/Kg, dose level Low, time 3 day
[4] = 120 h, dose 8.1 mg/Kg, dose level Low, time 5 day

For Nc1ccc(Cc2ccc(N)cc2)cc1, the “ABSOLUTE BASOPHIL” value [1] was 0 CELLS/uL, the “ABSOLUTE EOSINOPHIL” value [1] was 75.33 CELLS/uL and the “ABSOLUTE LYMPHOCYTE” value [1] was 15902.67 CELLS/uL. The “ABSOLUTE MONOCYTE” value [1] was 589 CELLS/uL, the “ABSOLUTE SEGMENTED NEUTROPHIL” value [1] was 3066.33 CELLS/uL and the BASOPHIL [1] was 0%. For the same compound, the EOSINOPHIL [1] was 0.33%, the “ERYTHROCYTE COUNT” value [1] was 5.52 x10E6/uL and the HEMATOCRIT [1] was 34.27%. For the same compound, the HEMOGLOBIN [1] was 13.27 G/DL, the “LEUKOCYTE COUNT” value [1] was 19.63 x10E3/uL and the LYMPHOCYTE [1] was 81.33%. The “MEAN CORPUSCULAR HEMOGLOBIN” value [1] was 24.13 pg, the “MEAN CORPUSCULAR HEMOGLOBIN CONCENTRATION” value [1] was 38.83 G/DL and the “MEAN CORPUSCULAR VOLUME” value [1] was 62.2 fL. For the same compound, the MONOCYTE [1] was 3%, the NEUTROPHIL [1] was 15.33% and the “NUCLEATED RED BLOOD CELLS” value [1] was 0.33 /100WBC. The “PLATELET COUNT” value [1] was 1017.33 x10E3/uL, the “ALANINE AMINOTRANSFERASE” value [1] was 253.67 u/L and the ALBUMIN [1] was 3.4 G/DL. The “ALKALINE PHOSPHATASE” value [1] was 742 u/L, the “ASPARTATE AMINOTRANSFERASE” value [1] was 450.67 u/L and the “BLOOD UREA NITROGEN” value [1] was 10.67 mg/dL. The “CARBON DIOXIDE” value [1] was 24.33 mmol/L, the CHLORIDE [1] was 102.33 MEQ/L and the CHOLESTEROL [1] was 143.67 mg/dL. For the same compound, the “CREATINE PHOSPHOKINASE” value [1] was 1027.33 u/L, the CREATININE [1] was 0.14 mg/dL and the GLUCOSE [1] was 152 mg/dL. For the same compound, the “LACTATE DEHYDROGENASE” value [1] was 723.67 u/L, the LIPASE [1] was 11 u/L and the PHOSPHORUS [1] was 11.77 mg/dL. The POTASSIUM [1] was 5.87 MEQ/L, the SODIUM [1] was 142.6 MEQ/L and the “TOTAL BILIRUBIN” value [1] was 0.9 mg/dL. For the same compound, the “TOTAL PROTEIN” value [1] was 5.13 G/DL, the “URIC ACID” value [1] was 1.27 mg/dL and the “ABSOLUTE BASOPHIL” value [2] was 0 CELLS/uL. The “ABSOLUTE EOSINOPHIL” value [2] was 0 CELLS/uL, the “ABSOLUTE LYMPHOCYTE” value [2] was 23023 CELLS/uL and the “ABSOLUTE MONOCYTE” value [2] was 1729.67 CELLS/uL. For the same compound, the “ABSOLUTE SEGMENTED NEUTROPHIL” value [2] was 3714 CELLS/uL, the BASOPHIL [2] was 0% and the EOSINOPHIL [2] was 0%. For the same compound, the “ERYTHROCYTE COUNT” value [2] was 5.81 x10E6/uL, the HEMATOCRIT [2] was 34.63% and the HEMOGLOBIN [2] was 13.53 G/DL. For the same compound, the “LEUKOCYTE COUNT” value [2] was 28.47 x10E3/uL, the LYMPHOCYTE [2] was 81% and the “MEAN CORPUSCULAR HEMOGLOBIN” value [2] was 23.33 pg. The “MEAN CORPUSCULAR HEMOGLOBIN CONCENTRATION” value [2] was 39.1 G/DL, the “MEAN CORPUSCULAR VOLUME” value [2] was 59.67 fL and the MONOCYTE [2] was 6%. For the same compound, the NEUTROPHIL [2] was 13%, the “NUCLEATED RED BLOOD CELLS” value [2] was 0 /100WBC and the “PLATELET COUNT” value [2] was 1124.33 x10E3/uL. The “ALANINE AMINOTRANSFERASE” value [2] was 131.67 u/L, the ALBUMIN [2] was 3.4 G/DL and the “ALKALINE PHOSPHATASE” value [2] was 589 u/L. For the same compound, the “ASPARTATE AMINOTRANSFERASE” value [2] was 255.33 u/L, the “BLOOD UREA NITROGEN” value [2] was 14 mg/dL and the “CARBON DIOXIDE” value [2] was 28.33 mmol/L. For the same compound, the CHLORIDE [2] was 101.67 MEQ/L, the CHOLESTEROL [2] was 138.33 mg/dL and the “CREATINE PHOSPHOKINASE” value [2] was 541 u/L. For the same compound, the CREATININE [2] was 0.23 mg/dL, the GLUCOSE [2] was 138.33 mg/dL and the “LACTATE DEHYDROGENASE” value [2] was 636.33 u/L. The LIPASE [2] was 11.67 u/L, the PHOSPHORUS [2] was 9.3 mg/dL and the POTASSIUM [2] was 5.58 MEQ/L. The SODIUM [2] was 142.97 MEQ/L, the “TOTAL BILIRUBIN” value [2] was 0.83 mg/dL and the “TOTAL PROTEIN” value [2] was 5.7 G/DL. For the same compound, the “URIC ACID” value [2] was 1.2 mg/dL, the “ABSOLUTE BASOPHIL” value [3] was 0 CELLS/uL and the “ABSOLUTE EOSINOPHIL” value [3] was 0 CELLS/uL. The “ABSOLUTE LYMPHOCYTE” value [3] was 10998 CELLS/uL, the “ABSOLUTE MONOCYTE” value [3] was 210.33 CELLS/uL and the “ABSOLUTE SEGMENTED NEUTROPHIL” value [3] was 1658.33 CELLS/uL. For the same compound, the BASOPHIL [3] was 0%, the EOSINOPHIL [3] was 0% and the “ERYTHROCYTE COUNT” value [3] was 5.48 x10E6/uL. The HEMATOCRIT [3] was 34.13%, the HEMOGLOBIN [3] was 13.5 G/DL and the “LEUKOCYTE COUNT” value [3] was 12.87 x10E3/uL. The LYMPHOCYTE [3] was 85.67%, the “MEAN CORPUSCULAR HEMOGLOBIN” value [3] was 24.7 pg and the “MEAN CORPUSCULAR HEMOGLOBIN CONCENTRATION” value [3] was 39.6 G/DL. For the same compound, the “MEAN CORPUSCULAR VOLUME” value [3] was 62.3 fL, the MONOCYTE [3] was 1.67% and the NEUTROPHIL [3] was 12.67%. The “NUCLEATED RED BLOOD CELLS” value [3] was 0 /100WBC, the “PLATELET COUNT” value [3] was 1052.33 x10E3/uL and the “ALANINE AMINOTRANSFERASE” value [3] was 74.67 u/L. The ALBUMIN [3] was 3.93 G/DL, the “ALKALINE PHOSPHATASE” value [3] was 451 u/L and the “ASPARTATE AMINOTRANSFERASE” value [3] was 94.33 u/L. The “BLOOD UREA NITROGEN” value [3] was 12 mg/dL, the “CARBON DIOXIDE” value [3] was 24 mmol/L and the CHLORIDE [3] was 102.67 MEQ/L. For the same compound, the CHOLESTEROL [3] was 79 mg/dL, the “CREATINE PHOSPHOKINASE” value [3] was 294.67 u/L and the CREATININE [3] was 0.2 mg/dL. For the same compound, the GLUCOSE [3] was 157.33 mg/dL, the “LACTATE DEHYDROGENASE” value [3] was 177 u/L and the LIPASE [3] was 12.33 u/L. The PHOSPHORUS [3] was 12.33 mg/dL, the POTASSIUM [3] was 5.95 MEQ/L and the SODIUM [3] was 143.97 MEQ/L. The “TOTAL BILIRUBIN” value [3] was 0.17 mg/dL, the “TOTAL PROTEIN” value [3] was 5.47 G/DL and the “URIC ACID” value [3] was 1.27 mg/dL. For the same compound, the “ABSOLUTE BASOPHIL” value [4] was 0 CELLS/uL, the “ABSOLUTE EOSINOPHIL” value [4] was 0 CELLS/uL and the “ABSOLUTE LYMPHOCYTE” value [4] was 11058.67 CELLS/uL. For the same compound, the “ABSOLUTE MONOCYTE” value [4] was 46 CELLS/uL, the “ABSOLUTE SEGMENTED NEUTROPHIL” value [4] was 1295.33 CELLS/uL and the BASOPHIL [4] was 0%. The EOSINOPHIL [4] was 0%, the “ERYTHROCYTE COUNT” value [4] was 5.5 x10E6/uL and the HEMATOCRIT [4] was 34.53%. For the same compound, the HEMOGLOBIN [4] was 13.8 G/DL, the “LEUKOCYTE COUNT” value [4] was 12.4 x10E3/uL and the LYMPHOCYTE [4] was 89.67%. The “MEAN CORPUSCULAR HEMOGLOBIN” value [4] was 25.13 pg, the “MEAN CORPUSCULAR HEMOGLOBIN CONCENTRATION” value [4] was 39.97 G/DL and the “MEAN CORPUSCULAR VOLUME” value [4] was 62.83 fL. For the same compound, the MONOCYTE [4] was 0.33%, the NEUTROPHIL [4] was 10% and the “NUCLEATED RED BLOOD CELLS” value [4] was 0 /100WBC. The “PLATELET COUNT” value [4] was 1265 x10E3/uL, the “ALANINE AMINOTRANSFERASE” value [4] was 63.67 u/L and the ALBUMIN [4] was 4.2 G/DL. For the same compound, the “ALKALINE PHOSPHATASE” value [4] was 474 u/L, the “ASPARTATE AMINOTRANSFERASE” value [4] was 88.67 u/L and the “BLOOD UREA NITROGEN” value [4] was 11.33 mg/dL. For the same compound, the “CARBON DIOXIDE” value [4] was 35.33 mmol/L, the CHLORIDE [4] was 100.33 MEQ/L and the CHOLESTEROL [4] was 59.33 mg/dL. For the same compound, the “CREATINE PHOSPHOKINASE” value [4] was 280.67 u/L, the CREATININE [4] was 0.16 mg/dL and the GLUCOSE [4] was 138.67 mg/dL. For the same compound, the “LACTATE DEHYDROGENASE” value [4] was 317.67 u/L, the LIPASE [4] was 10.67 u/L and the PHOSPHORUS [4] was 10.57 mg/dL. For the same compound, the POTASSIUM [4] was 6.26 MEQ/L, the SODIUM [4] was 144.83 MEQ/L and the “TOTAL BILIRUBIN” value [4] was 0.2 mg/dL. For the same compound, the “TOTAL PROTEIN” value [4] was 5.93 G/DL and the “URIC ACID” value [4] was 1.4 mg/dL.
